Key:
Settings in all cases: 72 h
[1] = tested on: myeloid leukemia patient primary cells Pat.9; test: cell viability (% survival relative to DMSO control); higher = less cytotoxic
Method in brief: (§1)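 Seventy compounds were pre-printed on 384-well plates at five tenfold concentrations between 1 and 10,000 nM, in duplicate. Thawed mononuclear cells purified by Ficoll from AML or CML patients were added at 10,000 cells/well in RPMI 1640 with 10% FBS for 72 h. Viability by CellTiter-Glo was normalised to DMSO and 10 μM proteasome-inhibitor wells. Where stated, area under the curve was taken from log-logistic fits made with the drc and PharmacoGx R packages, each fit having four parameters.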

[2] = tested on: myeloid leukemia patient primary cells Pat.10; test: as above
Method in brief: as §1

[3] = tested on: myeloid leukemia patient primary cells Pat.3; test: as above
Method in brief: as §1

[4] = tested on: myeloid leukemia patient primary cells Pat.1; test: as above
Method in brief: as §1

[5] = tested on: myeloid leukemia patient primary cells Pat.11; test: as above
Method in brief: as §1

[6] = tested on: myeloid leukemia patient primary cells Pat.13; test: as above
Method in brief: as §1

[7] = tested on: myeloid leukemia patient primary cells Pat.12; test: as above
Method in brief: as §1

[8] = tested on: ML-2
Method in brief: (§2)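 Each of fifteen myeloid leukaemia cell lines was seeded in RPMI 1640 at a density titrated to its linear growth range. The cells were incubated for 72 h at 37 °C and 5% CO2 with compounds at five tenfold doses from 1 to 10,000 nM, in duplicate. After ATP luminescence was normalised to vehicle and to a positive control at 10 µM, four-parameter log-logistic curves were fitted. These curves gave the IC50.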

[9] = tested on: MOLM-13
Method in brief: as §2

[10] = tested on: THP-1
Method in brief: as §2

[11] = tested on: HL-60
Method in brief: as §2

[12] = tested on: KU-812
Method in brief: as §2

[13] = tested on: K-562
Method in brief: as §2

[14] = tested on: BV-173
Method in brief: as §2

[15] = tested on: KCL-22
Method in brief: as §2

[16] = tested on: KG-1
Method in brief: as §2

[17] = tested on: SHI-1
Method in brief: as §2

[18] = tested on: LAMA-84
Method in brief: as §2

[19] = tested on: HEL
Method in brief: as §2

[20] = tested on: Mono-Mac-6
Method in brief: as §2

[21] = tested on: MV4-11
Method in brief: as §2

[22] = tested on: myeloid leukemia patient primary cells Pat.9; test: area under dose-response curve (viability, 1 nM-10 uM) (fraction (0-1)); higher = more sensitive
Method in brief: as §1

[23] = tested on: myeloid leukemia patient primary cells Pat.10; test: as above
Method in brief: as §1

[24] = tested on: myeloid leukemia patient primary cells Pat.6; test: as above
Method in brief: as §1

[25] = tested on: myeloid leukemia patient primary cells Pat.14; test: as above
Method in brief: as §1

[26] = tested on: myeloid leukemia patient primary cells Pat.3; test: as above
Method in brief: as §1

[27] = tested on: myeloid leukemia patient primary cells Pat.4; test: as above
Method in brief: as §1

[28] = tested on: myeloid leukemia patient primary cells Pat.1; test: as above
Method in brief: as §1

[29] = tested on: myeloid leukemia patient primary cells Pat.8; test: as above
Method in brief: as §1

[30] = tested on: myeloid leukemia patient primary cells Pat.11; test: as above
Method in brief: as §1

[31] = tested on: myeloid leukemia patient primary cells Pat.7; test: as above
Method in brief: as §1

[32] = tested on: myeloid leukemia patient primary cells Pat.2; test: as above
Method in brief: as §1

[33] = tested on: myeloid leukemia patient primary cells Pat.15; test: as above
Method in brief: as §1

[34] = tested on: myeloid leukemia patient primary cells Pat.13; test: as above
Method in brief: as §1

[35] = tested on: myeloid leukemia patient primary cells Pat.5; test: as above
Method in brief: as §1

[36] = tested on: myeloid leukemia patient primary cells Pat.12; test: as above
Method in brief: as §1

Clc1cc(Cl)c(OCC#CI)cc1Cl [Haloprogin]
cell viability [%]
Settings	[1]	[2]	[3]	[4]	[5]	[6]	[7]
1 nM	80.9	43.6	> 100	91.8	94.1	88.1	92.9
10 nM	62.4	75.4	99.9	99.9	> 100	86	96.3
100 nM	43.4	46.9	92.4	82	96	91	94.2
1000 nM	3.45	23.9	1.81	48.3	81.8	67.8	67.1
10000 nM	3.68	93.2	< 0	14.1	1.14	26.3	0.0486

Settings	IC50 (cell viability)	area under dose-response curve
[8]	3250 nM	–
[9]	3950 nM	–
[10]	1690 nM	–
[11]	> 10 µM	–
[12]	2030 nM	–
[13]	5.06 µM	–
[14]	1580 nM	–
[15]	1710 nM	–
[16]	3.26 µM	–
[17]	> 10 µM	–
[18]	5490 nM	–
[19]	3480 nM	–
[20]	2840 nM	–
[21]	2520 nM	–
[22]	–	0.505
[23]	–	0.411
[24]	–	0.238
[25]	–	0.427
[26]	–	0.388
[27]	–	0.323
[28]	–	0.258
[29]	–	0.175
[30]	–	0.166
[31]	–	0.356
[32]	–	0.209
[33]	–	0.183
[34]	–	0.152
[35]	–	0.677
[36]	–	0.204

C=C1NC(=O)c2cc(CN(C)c3ccc(C(=O)N[C@@H](CCC(=O)O)C(=O)O)s3)ccc2N1 [Raltitrexed]
cell viability [%]
Settings	[1]	[2]	[3]	[4]	[5]	[6]	[7]
1 nM	40.5	54.5	81.1	79.1	93.9	> 100	86.9
10 nM	84	74.6	> 100	96.9	97.3	85.4	96.9
100 nM	81.9	96.5	58.5	99.9	99.3	> 100	> 100
1000 nM	54.5	> 100	38.7	93.7	97.4	92.6	95.9
10000 nM	72.8	89.9	58.7	> 100	99.2	95.5	98.6

Settings	IC50 (cell viability)	area under dose-response curve
[8]	122 nM	–
[9]	47.9 nM	–
[10]	193 nM	–
[11]	0.422 µM	–
[12]	56 nM	–
[13]	0.201 µM	–
[14]	52.4 nM	–
[15]	69.8 nM	–
[16]	> 10 µM	–
[17]	0.562 µM	–
[18]	42.8 nM	–
[19]	37.6 nM	–
[20]	45.2 nM	–
[21]	91.9 nM	–
[22]	–	< 0.0301
[23]	–	< 0.0301
[24]	–	< 0.0301
[25]	–	< 0.0301
[26]	–	0.324
[27]	–	< 0.0301
[28]	–	< 0.0301
[29]	–	< 0.0301
[30]	–	< 0.0301
[31]	–	< 0.0301
[32]	–	< 0.0301
[33]	–	< 0.0301
[34]	–	< 0.0301
[35]	–	< 0.0301
[36]	–	< 0.0301

CCCCCCCCCCCCC/C=C/[C@@H](O)[C@H](CO)N(C)C [N,N-Dimethylsphingosine]
cell viability [%]
Settings	[1]	[2]	[3]	[4]	[5]	[6]	[7]
1 nM	68.4	79.3	57.4	> 100	94.6	94.6	100
10 nM	77.7	74.6	87.2	92.6	> 100	86.2	84.6
100 nM	25.2	39.9	60	79.6	94.1	71.2	94.2
1000 nM	21.6	22.9	17.4	74.3	93.3	85.7	84.6
10000 nM	< 0	< 0	0.177	56.2	19.4	0.263	42.2

Settings	IC50 (cell viability)	area under dose-response curve
[8]	3460 nM	–
[9]	> 10000 nM	–
[10]	> 10000 nM	–
[11]	> 10 µM	–
[12]	> 10000 nM	–
[13]	> 10 µM	–
[14]	1670 nM	–
[15]	2780 nM	–
[16]	3.58 µM	–
[17]	> 10 µM	–
[18]	> 10000 nM	–
[19]	2980 nM	–
[20]	> 10000 nM	–
[21]	> 10000 nM	–
[22]	–	0.516
[23]	–	0.468
[24]	–	0.15
[25]	–	0.273
[26]	–	0.384
[27]	–	0.153
[28]	–	0.0643
[29]	–	0.114
[30]	–	0.0868
[31]	–	0.335
[32]	–	0.127
[33]	–	0.113
[34]	–	0.131
[35]	–	0.664
[36]	–	0.0829

CN(C)CCNC(=O)c1cccn2c(=O)c3cc4ccccc4cc3nc12 [Bmh-21]
cell viability [%]
Settings	[1]	[2]	[3]	[4]	[5]	[6]	[7]
1 nM	63	74.6	94.4	85.9	> 100	87.4	94.1
10 nM	90.4	87.5	90.3	91.9	97.6	96.6	91.9
100 nM	69.9	72.1	88.3	91.5	> 100	84.1	97.3
1000 nM	3.68	38.9	12.1	3.71	24.3	19.7	55.1
10000 nM	3.45	17.3	3.46	0.712	1.02	1.27	0.342

Settings	IC50 (cell viability)	area under dose-response curve
[8]	314 nM	–
[9]	2380 nM	–
[10]	910 nM	–
[11]	> 10 µM	–
[12]	479 nM	–
[13]	9.11 µM	–
[14]	293 nM	–
[15]	312 nM	–
[16]	0.407 µM	–
[17]	> 10 µM	–
[18]	486 nM	–
[19]	331 nM	–
[20]	347 nM	–
[21]	2780 nM	–
[22]	–	0.396
[23]	–	0.263
[24]	–	0.199
[25]	–	0.254
[26]	–	0.351
[27]	–	0.36
[28]	–	0.368
[29]	–	0.121
[30]	–	0.31
[31]	–	0.318
[32]	–	0.0874
[33]	–	0.386
[34]	–	0.338
[35]	–	0.372
[36]	–	0.233

— the supplement of paper PMC8671470
